Assay results reported in PMC6430037 (Heliyon, 2019).
Entries after “also recorded” stand apart in the source; their conditions may differ. Counter-ions that a name gives are not always drawn.

Experiments:
[1] = tested on: mice; conditions: cited from earlier work
[2] = tested on: mice; conditions: cited from earlier work; remark: listed apart in the source
[3] = tested on: BDZ-bs of the GABAA receptor; assay: [3H]-FNZ radioligand binding assay; conditions: [3H]-FNZ displacement, compound at 300 μM, rat cerebral cortex membranes
[4] = target: T1, 5-HT1A receptor (Rattus norvegicus, UniProt P19327); assay: [3H]-8-OH-DPAT radioligand binding assay; conditions: for inhibition at 300 µM: read-out: 5-HT1A Binding Inhibition (%) [300 μM]
T1 sequence (P19327 1-422): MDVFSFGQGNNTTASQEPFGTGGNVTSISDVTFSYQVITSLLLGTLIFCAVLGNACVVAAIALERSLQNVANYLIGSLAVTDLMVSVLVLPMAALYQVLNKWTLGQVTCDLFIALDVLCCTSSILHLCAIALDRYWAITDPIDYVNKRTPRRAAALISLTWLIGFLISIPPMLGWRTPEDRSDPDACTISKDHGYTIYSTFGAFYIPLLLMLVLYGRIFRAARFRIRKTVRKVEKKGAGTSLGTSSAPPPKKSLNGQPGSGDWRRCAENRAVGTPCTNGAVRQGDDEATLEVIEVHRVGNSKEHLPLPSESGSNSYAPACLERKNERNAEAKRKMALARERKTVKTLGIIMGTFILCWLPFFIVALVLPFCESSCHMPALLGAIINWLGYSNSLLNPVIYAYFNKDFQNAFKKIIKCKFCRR

[5] = target: μ-opioid receptor (Rattus norvegicus, UniProt P33535); assay: [3H]-DAMGO radioligand binding assay; conditions: for inhibition at 300 µM: read-out: μ-opioid Binding inhibition (%) [300 μM]; for Ki: μ-opioid Ki, [3H]-DAMGO, rat forebrain membranes, Ki ± SEM, 2 determinations
[6] = tested on: mice; assay: Tail suspension test; type: in vivo; conditions: 30 min before
[7] = tested on: mice; assay: Acetic acid induced writhing test; type: in vivo; conditions: for number of writhes vs VEH: acetic acid 0.75%
[8] = tested on: mice; assay: Hot plate test; type: in vivo; conditions: plate 52.5 °C; for reaction (latency) time against thermal stimulus vs VEH: 30 mg/kg i.p.
[9] = Cell viability assay; type: cell-based, human; conditions: human, SH-SY5Y cells
[10] = PAMPA-BBB permeability assay; type: in vitro ADME; conditions: for Papp at 16 h, 50 µM: PAMPA, pH 7.4; for BBB penetration estimation Prediction: PAMPA-BBB binning by -logPe
[11] = tested on: mice; assay: Elevated plus-maze test; type: in vivo
[12] = tested on: mice; assay: Spontaneous locomotor activity; type: in vivo; conditions: 10 and 30 mg/kg i.p., 5 min counts
[13] = tested on: mice; assay: Rotarod; type: in vivo; conditions: 30 mg/kg i.p., cut-off 120 s
[14] = tested on: rats; conditions: cited from earlier work
[15] = 10 mg/kg i.p., 30 min before, 5 min session

μ-opioid receptor, sequence (P33535 whole entry): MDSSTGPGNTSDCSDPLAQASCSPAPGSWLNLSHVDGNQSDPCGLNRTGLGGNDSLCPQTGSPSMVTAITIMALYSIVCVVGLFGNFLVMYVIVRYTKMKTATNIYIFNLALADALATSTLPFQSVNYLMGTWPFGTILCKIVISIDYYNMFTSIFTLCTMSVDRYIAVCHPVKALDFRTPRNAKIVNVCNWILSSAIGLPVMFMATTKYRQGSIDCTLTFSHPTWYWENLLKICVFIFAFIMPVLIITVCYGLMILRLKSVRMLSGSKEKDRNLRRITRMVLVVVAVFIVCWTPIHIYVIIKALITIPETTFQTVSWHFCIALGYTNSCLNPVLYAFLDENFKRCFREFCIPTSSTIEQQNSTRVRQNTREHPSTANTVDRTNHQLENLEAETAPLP

SMILES | BDZ-bs Binding inhibition (%) [300 μM] [3] | Ki [4] | inhibition at 300 µM [4] | inhibition at 300 µM [5] | Ki [5] | also measured
O=C(/C=C/c1c(Cl)cccc1Cl)c1ccc(O)cc1O [2,6-dichloro-2′,4′-dihydroxychalcone] |  |  |  |  |  | head-twitches in the 5-HT induced head-twitch test [1]: significantly increased head-twitches; lethality in the yohimbine-induced mortality test [2]: enhanced the mouse lethality
O=C(/C=C/c1cccc(Br)c1)c1ccc(O)cc1O [3-bromo-2′,4′-dihydroxychalcone] |  |  |  |  |  | head-twitches in the 5-HT induced head-twitch test [1]: significantly increased head-twitches; lethality in the yohimbine-induced mortality test [2]: enhanced the mouse lethality
O=C(/C=C/c1ccccc1)c1ccccc1O [Compound 2, (2E)-1-(2-hydroxyphenyl)-3-phenyl-2-propen-1-one] | +++ (inhibition 60–90% (+++)) | 71.4 ± 1.4 µM | 60 to 90% | 20 to 40% |  | 
COc1ccc(C(=O)/C=C/c2ccccc2)c(O)c1 [Compound 3, (2E)-1-(2-hydroxy-4-methoxyphenyl)-3-phenyl-2-propen-1-one] | +++ (inhibition 60–90% (+++)) |  | 20 to 40% | 20 to 40% |  | 
COc1ccc(O)c(C(=O)/C=C/c2ccccc2)c1 [Compound 4, (2E)-1-(2-hydroxy-5-methoxyphenyl)-3-phenyl-2-propen-1-one] | +++ (inhibition 60–90% (+++)) | 303 ± 1.2 µM | 60 to 90% | 60 to 90% | 54.6 ± 2.9 µM | 
COc1cccc(O)c1C(=O)/C=C/c1ccccc1 [Compound 5, (2E)-1-(2-hydroxy-6-methoxyphenyl)-3-phenyl-2-propen-1-one] | - (inhibition <20% (-)) | 13.3 ± 0.3 µM | > 90% | 60 to 90% | 26.7 ± 1.6 µM | immobility time vs VEH ([6]; 10 mg/kg i.p.): not active
O=C(/C=C/c1ccccc1)c1cc(Cl)ccc1O [Compound 6, (2E)-1-(5-chloro-2-hydroxyphenyl)-3-phenyl-2-propen-1-one] | ++ (inhibition 40–60% (++)) |  | 40 to 60% | 60 to 90% | 19.4 ± 3.5 µM | number of writhes vs VEH ([7]; 10 mg/kg i.p.): significantly reduced; reaction (latency) time against thermal stimulus vs VEH [8]: Only chalcone 12 at 30 mg/kg caused significant increases
O=C(/C=C/c1ccccc1)c1cc(F)ccc1O [Compound 7, (2E)-1-(5-fluoro-2-hydroxyphenyl)-3-phenyl-2-propen-1-one] | ++ (inhibition 40–60% (++)) | 129 ± 2.7 µM | 60 to 90% | 60 to 90% | 29.5 ± 6.6 µM | 
O=C(/C=C/c1ccccc1)c1cc(Br)ccc1O [Compound 8, (2E)-1-(5-bromo-2-hydroxyphenyl)-3-phenyl-2-propen-1-one] | ++ (inhibition 40–60% (++)) |  | 40 to 60% | 20 to 40% |  | 
Cc1ccc(O)c(C(=O)/C=C/c2ccccc2)c1 [Compound 9, (2E)-1-(2-hydroxy-5-methylphenyl)-3-phenyl-2-propen-1-one] | +++ (inhibition 60–90% (+++)) |  | 40 to 60% | 60 to 90% | 46.3 ± 1.6 µM | viability at 48 h, 20 µM [9]: 88.5%; Papp at 16 h, 50 µM [10]: 25.1 ×10⁻⁶ cm/s; BBB penetration estimation Prediction [10]: CNS+ (CNS+, -logPe < 5.6, high permeability); percentage of open arm entries vs VEH [11, 15]: significantly increased; percentage of time spent in open arms vs VEH [11, 15]: significantly increased; number of total arm entries vs VEH ([11]; 30 mg/kg i.p.): significantly increased; spontaneous locomotor activity vs VEH [12]: did not show significant differences
O=C(/C=C/c1ccccc1)c1cc(Br)cc(Br)c1O [Compound 10, (2E)-1-(3,5-dibromo-2-hydroxyphenyl)-3-phenyl-2-propen-1-one] | - (inhibition <20% (-)) | 1220 ± 469 µM | 60 to 90% | 60 to 90% | 32.5 ± 9.3 µM | 
Cc1cc(O)c(C(=O)/C=C/c2ccccc2)cc1C [Compound 11, (2E)-1-(4,5-dimethyl-2-hydroxyphenyl)-3-phenyl-2-propen-1-one] | + (inhibition 20–40% (+)) | 164 ± 1.47 µM | 60 to 90% | 60 to 90% | 29.1 ± 8.5 µM | 
Cc1cc(C(=O)/C=C/c2ccccc2)c(O)c([N+](=O)[O-])c1 [Compound 12, (2E)-1-(5-methyl-3-nitro-2-hydroxyphenyl)-3-phenyl-2-propen-1-one] | + (inhibition 20–40% (+)) |  | < 20% | > 90% | 10.8 ± 3.6 µM | viability at 48 h, 20 µM [9]: 74.8%; Papp at 16 h, 50 µM [10]: 33.9 ×10⁻⁶ cm/s; BBB penetration estimation Prediction [10]: CNS+ (CNS+, -logPe < 5.6, high permeability); inhibition of constrictions compared to VEH ([7]; 3 mg/kg i.p.): 59.7%; inhibition of constrictions compared to VEH ([7]; 10 mg/kg i.p.): 62.6%; number of writhes vs VEH ([7]; 10 mg/kg i.p.): significantly reduced; inhibition of constrictions compared to VEH ([7]; 30 mg/kg i.p.): 96.1%; reaction (latency) time against thermal stimulus vs VEH [8]: significant increases; also recorded: significantly increased; spontaneous locomotor activity vs VEH [12]: None of the mice treated with chalcone 12 showed any failure in their locomotion; balance on the Rotarod [13]: did not produce neurotoxicity or motor impairment
COc1cc(C(=O)/C=C/c2ccccc2)ccc1O [Compound 13, (2E)-1-(4-hydroxy-3-methoxyphenyl)-3-phenyl-2-propen-1-one] | ++ (inhibition 40–60% (++)) | 287.8 ± 1.9 µM | 40 to 60% | 40 to 60% |  | 
Nc1ccc(C(=O)/C=C/c2ccccc2)cc1 [Compound 14, (2E)-1-(4-aminophenyl)-3-phenyl-2-propen-1-one] | +++ (inhibition 60–90% (+++)) |  | 40 to 60% | 60 to 90% | 59.4 ± 1.5 µM | 
Cc1ccc(C(=O)/C=C/c2ccccc2)cc1 [Compound 15, (2E)-1-(4-methylphenyl)-3-phenyl-2-propen-1-one] | +++ (inhibition 60–90% (+++)) |  | 40 to 60% | 20 to 40% |  | 
O=C(/C=C/c1cccc([N+](=O)[O-])c1)c1ccccc1 [Compound 16, (2E)-3-(3-nitrophenyl)-1-phenyl-2-propen-1-one] | ++++ (inhibition >90% (++++)) |  | 40 to 60% | < 20% |  | number of total arm entries vs VEH [11, 15]: significantly increased
O=C(/C=C/c1ccc([N+](=O)[O-])cc1)c1ccccc1 [Compound 17, (2E)-3-(4-nitrophenyl)-1-phenyl-2-propen-1-one] | - (inhibition <20% (-)) |  | < 20% | 20 to 40% |  | 
O=C(/C=C/c1cccc(Cl)c1)c1ccccc1 [Compound 18, (2E)-3-(3-chlorophenyl)-1-phenyl-2-propen-1-one] | ++ (inhibition 40–60% (++)) |  | 20 to 40% | 20 to 40% |  | 
O=C(/C=C/c1ccc(Cl)cc1)c1ccccc1 [Compound 19, (2E)-3-(4-chlorophenyl)-1-phenyl-2-propen-1-one] | + (inhibition 20–40% (+)) |  | < 20% | 20 to 40% |  | 
CN(C)c1ccc(/C=C/C(=O)c2ccccc2)cc1 [Compound 20, (2E)-3-[4-(dimethylamino)phenyl]-1-phenyl-2-propen-1-one] | - (inhibition <20% (-)) | 59.6 ± 1.5 µM | 60 to 90% | 60 to 90% | 23.8 ± 3.1 µM | 
Nc1ccc(C(=O)/C=C/c2cccc([N+](=O)[O-])c2)cc1 [Compound 21, (2E)-1-(4-aminophenyl)-3-(3-nitrophenyl)-2-propen-1-one] |  | 473 ± 7.3 µM | 60 to 90% | 40 to 60% |  | 
CN(C)CCCN1c2ccccc2CCc2ccccc21 [IMP, imipramine hydrochloride, reference compound] |  |  |  |  |  | immobility time vs VEH ([6]; 30 mg/kg i.p.): significantly reduced
O=C(/C=C/c1ccc(O)c(O)c1)c1ccc(O)cc1O [butein] |  |  |  |  |  | effect in the plus-maze test [14]: anxiolytic-like effect
CN1CC[C@]23c4c5ccc(O)c4O[C@H]2[C@@H](O)C=C[C@H]3[C@H]1C5 [morphine, Morphine hydrochloride, reference compound] |  |  |  |  |  | abdominal cramps ([7]; 6 mg/kg i.p.): no abdominal cramps; latency time ([8]; 6 mg/kg i.p., 45 s cut-off): 42.6 s
